Laboratory results published in US8324222B2, “Cyclically substituted furopyrimidine derivatives and use thereof” (Bayer Intellectual Property GmbH, priority 2005, dated 2012).

Molecular target: T1, prostacyclin receptors (IP receptors) of human thrombocyte membranes (Homo sapiens, UniProt P43119)
T1 construct: 300-1000 μg/ml human thrombocyte membranes per charge; tissue Maco Pharma, Langen (buffy coats); host or cells: human thrombocyte (platelet) membranes prepared from human blood buffy coats
T1 sequence (P43119 whole entry): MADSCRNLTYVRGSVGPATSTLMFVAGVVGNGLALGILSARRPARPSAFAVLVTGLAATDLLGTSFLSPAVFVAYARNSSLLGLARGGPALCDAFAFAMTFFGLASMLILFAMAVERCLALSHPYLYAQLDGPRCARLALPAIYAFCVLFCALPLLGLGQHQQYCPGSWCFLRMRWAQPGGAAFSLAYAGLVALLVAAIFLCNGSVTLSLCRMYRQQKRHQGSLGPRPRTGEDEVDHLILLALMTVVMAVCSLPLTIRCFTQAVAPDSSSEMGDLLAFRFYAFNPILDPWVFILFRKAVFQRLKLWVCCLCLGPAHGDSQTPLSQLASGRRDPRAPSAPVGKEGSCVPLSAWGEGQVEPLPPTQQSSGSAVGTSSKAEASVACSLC
Test: Binding to prostacyclin receptors (IP receptors) of human thrombocyte membranes (3H-Iloprost displacement)
Details: 3 nM 3H-Iloprost, 60 min, room temperature
Procedure: B-1. Studies of Binding to Prostacyclin Receptors (IP Receptors) of Human Thrombocyte Membranes
Thrombocyte membranes are obtained by centrifuging 50 ml human blood (Buffy coats with CDP Stabilizer, from Maco Pharma, Langen) for 20 min at 160×g. Remove the supernatant (platelet-rich plasma, PRP) and then centrifuge again at 2000×g for 10 min at room temperature. Resuspend the sediment in 50 mM tris-(hydroxymethyl)-aminomethane, which has been adjusted to a pH of 7.4 with 1 N hydrochloric acid, and store at −20° C. overnight. On the next day, centrifuge the suspension at 80000×g and 4° C. for 30 minDiscard the supernatant. Resuspend the sediment in 50 mM tris-(hydroxymethyl)-aminomethane/hydrochloric acid, 0.25 mM ethylene diamine tetraacetic acid (EDTA), pH 7.4, and then centrifuge once again at 80000×g and 4° C. for 30 min. Take up the membrane sediment in binding buffer (50 mM tris-(hydroxymethyl)-aminomethane/hydrochloric acid, 5 mM magnesium chloride, pH 7.4) and store at −70° C. until the binding test.
For the binding test, incubate 3.nM ^3H-Iloprost (592 GBq/mmol, from AmershamBioscience) for 60 min with 300-1000 μg/ml human thrombocyte membranes per charge (max. 0.2 ml) in the presence of the test substances at room temperature. After stopping, add cold binding buffer to the membranes and wash with 0.1% bovine serum albumin. After adding Ultima Gold Scintillator, quantify the radioactivity bound to the membranes using a scintillation counter. The nonspecific binding is defined as radioactivity in the presence of 1 μM Iloprost (from Cayman Chemical, Ann Arbor) and is as a rule <25% of the bound total radioactivity. The binding data (IC50 values) are determined using the program GraphPad Prism Version 3.02.
For `COc1ccc(-c2c(-c3ccccc3)oc3ncnc(O[C@H]4CCC[C@H](OCC(=O)O)C4)c23)cc1` (racemic) [Example 69], the IC50 was 8 nM.
Work on `CCc1ccc(-c2c(-c3ccccc3)oc3ncnc(N[C@H]4CCC[C@H](OCC(=O)O)C4)c23)cc1` (racemic) [Example 146] yielded an IC50 of 20 nM.
In the case of `COc1ccc(-c2c(-c3ccccc3)oc3ncnc(O[C@H]4CCC[C@@H](OCC(=O)O)C4)c23)cc1` (single isomer, unassigned) [Example 67], the IC50 is reported as 388 nM.
`COc1ccc(-c2c(-c3ccccc3)oc3ncnc(O[C@H]4CCC[C@@H](OCC(=O)O)C4)c23)cc1` (single isomer, unassigned) [Example 68] showed an IC50 of 34 nM.
Work on `CCc1ccc(-c2c(-c3ccccc3)oc3ncnc(O[C@@H]4CCCN(CCCC(=O)O)C4)c23)cc1F` (single isomer, unassigned) [Example 159] yielded an IC50 of 83 nM.
`O=C(O)COc1cccc(Nc2ncnc3oc(-c4ccccc4)c(-c4ccc(F)cc4)c23)c1` [Example 6, 3-{[5-(4-Fluorophenyl)-6-phenylfuro[2,3-d]pyrimidin-4-yl]amino}phenoxyacetic acid] gave an IC50 of 237 nM.
`COC(=O)COc1cccc(Nc2ncnc3oc(-c4ccccc4)c(-c4ccc(OC)cc4)c23)c1` [Example 9, 3-{[5-(4-methoxyphenyl)-6-phenylfuro[2,3-d]pyrimidin-4-yl]amino}phenoxyacetic acid methyl ester] gave an IC50 of 43 nM.
Compound `COc1ccc(-c2c(-c3ccccc3)oc3ncnc(Nc4cccc(OCC(=O)O)c4)c23)cc1` [Example 10, 3-{[5-(4-Methoxyphenyl)-6-phenylfuro[2,3-d]pyrimidin-4-yl]amino}phenoxyacetic acid] has an IC50 of 18 nM.
`COc1ccc(-c2c(-c3ccccc3)oc3ncnc(Nc4cccc(/C=C/C(=O)O)c4)c23)cc1` [Example 21, (2E)-3-(3-{[5-(4-Methoxyphenyl)-6-phenylfuro[2,3-d]pyrimidin-4-yl]amino}phenyl)acrylic acid] gave an IC50 of 11 nM.
For `COc1ccc(-c2c(-c3ccccc3)oc3ncnc(Oc4ccc(CCC(=O)O)cc4)c23)cc1` [Example 24, 3-(4-{[5-(4-Methoxyphenyl)-6-phenylfuro[2,3-d]pyrimidin-4-yl]oxy}phenyl)propanoic acid], the IC50 was 15 nM.
Work on `COc1ccc(-c2c(-c3ccccc3)oc3ncnc(OC4CCCN(CCCC(=O)O)C4)c23)cc1` (centres unmarked) [Example 84] yielded an IC50 of 152 nM.
Compound `COc1ccc(-c2c(-c3ccccc3)oc3ncnc(N[C@H]4CCC[C@H](OCC(=O)O)C4)c23)cc1` [Example 87] has an IC50 of 17 nM.
In the case of `COc1ccc(-c2c(-c3ccccc3)oc3ncnc(O[C@@H]4CCCN(CCc5nnn[nH]5)C4)c23)cc1` [Example 99], the IC50 is reported as 34 nM.
`CCc1ccc(-c2c(-c3ccccc3)oc3ncnc(O[C@@H]4CCCN(CCCC(=O)O)C4)c23)cc1` [Example 154] gave an IC50 of 28 nM.
`O=C(O)CO[C@@H]1CCC[C@H](Oc2ncnc3oc(-c4ccccc4)c(-c4ccc(Cl)cc4)c23)C1` [Example 156] showed an IC50 of 293 nM.
In the case of `COc1ccc(-c2c(-c3ccccc3)oc3ncnc(O[C@H]4CC[C@H](OCC(=O)O)C4)c23)cc1` [Example 162], the IC50 is reported as 37 nM.
With `COc1ccc(-c2c(-c3ccccc3)oc3ncnc(N[C@H]4CC[C@@H](OCC(=O)O)C4)c23)cc1` [Example 168] the IC50 was 71 nM.
Compound `COc1ccc(-c2c(-c3ccccc3)oc3ncnc(N[C@@H]4CC[C@@H](OCC(=O)O)C4)c23)cc1` [Example 170] has an IC50 of 6 nM.
Compound `CCc1ccc(-c2c(-c3ccccc3)oc3ncnc(O[C@@H]4C=C[C@@H](OCC(=O)O)C4)c23)cc1` [Example 175] has an IC50 of 13 nM.
For `CCc1ccc(-c2c(-c3ccccc3)oc3ncnc(N[C@@H]4C=C[C@@H](OCC(=O)O)C4)c23)cc1` [Example 176], the IC50 was 24 nM.
`CCc1ccc(-c2c(-c3ccccc3F)oc3ncnc(O[C@@H]4CCCN(CCCC(=O)O)C4)c23)cc1` [Example 181, 4-[(3R)-3-{[5-(4-Ethylphenyl)-6-(2-fluorophenyl)furo[2,3-d]pyrimidin-4-yl]oxy}piperidin-1-yl]-butyric acid] gave an IC50 of 27 nM.
Work on `COC(=O)CCCN1CCC[C@@H](Oc2ncnc3oc(-c4ccccc4F)c(-c4ccc(OC)cc4)c23)C1` [Example 183, 4-[(3R)-3-{[6-(2-Fluorophenyl)-5-(4-methoxyphenyl)furo[2,3-d]pyrimidin-4-yl]oxy}piperidin-1-yl]butyric acid methyl ester] yielded an IC50 of 218 nM.

Test system: not given
Test: not given
Details: rapid non-enzymatic transformation to inactive metabolite 6-keto-prostaglandin-F1alpha; cited from earlier work
For `CCCCC[C@H](O)/C=C/[C@@H]1[C@H]2C/C(=C/CCCC(=O)O)O[C@H]2C[C@H]1O` [PGI2, Prostacyclin], the half-life is given as “approx. 3 minutes”.
